pKi: −log10 of the molar value. Several values for one entry are separate records, joined by “and”; a condition that tells them apart may be missing. Equal values may be shown once.
Target: D(3) dopamine receptor (Homo sapiens, UniProt P35462)
Sequence (P35462 as listed by the source): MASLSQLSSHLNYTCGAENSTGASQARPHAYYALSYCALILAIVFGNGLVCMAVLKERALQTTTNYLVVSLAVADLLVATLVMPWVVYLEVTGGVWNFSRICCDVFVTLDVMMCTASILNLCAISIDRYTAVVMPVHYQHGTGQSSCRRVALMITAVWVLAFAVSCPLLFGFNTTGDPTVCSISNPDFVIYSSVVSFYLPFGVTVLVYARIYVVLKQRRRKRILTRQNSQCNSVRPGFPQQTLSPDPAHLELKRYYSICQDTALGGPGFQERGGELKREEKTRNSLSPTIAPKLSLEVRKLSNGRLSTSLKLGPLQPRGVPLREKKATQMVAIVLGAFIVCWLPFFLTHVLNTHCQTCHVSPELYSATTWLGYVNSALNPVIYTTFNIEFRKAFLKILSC

| Structure (SMILES) | pKi |
| --- | --- |
| CCCN1CCO[C@@H]2c3cc(O)ccc3OC[C@H]21 | 8.67 and 8.12 and 8.45 |
| CCCN(CCC)C1CCc2cc3c(cc2C1)OCC3 (centres undefined) | 7.91 and 7.48 and 7.94 |
| CCCN(CCC)C1CCc2cc(CS(=O)(=O)c3ccc(OC)cc3)ccc2C1 (centres undefined) [GR218231] | 8.95 and 8.71 and 8.86 |
| N#Cc1ccc2c(c1)[C@H]1CN(CCCCNC(=O)c3ccc(-c4ccccc4)cc3)C[C@@H]1CO2 [S33084] | 9.52 and 9.03 and 9.43 |

Reference: BindingDB's records for doi:10.1007/s002100000217 (Croissy-Sur-Seine Paris, 2000)
